Assay results as given in publication PMC12549899 (Nature Communications, 2025).
“And” between values parts separate entries of the source, which are not always exact repeats. Equal values may be shown once. Read-outs that look alike come from different tables or passages of the source.

Target: T1, DrOTOP1 G130W/A388W (Danio rerio, UniProt Q7ZWK8, A388W/G130W)
T1 construct: A previously generated codon-optimized full-length DrOTOP1[8]; (UniProt: Q7ZWK8) construct; expressed in transfected cells; host or cells: HEK-293 (CRL-1573, ATCC)
T1 sequence (Q7ZWK8 1-586 G130W/A388W): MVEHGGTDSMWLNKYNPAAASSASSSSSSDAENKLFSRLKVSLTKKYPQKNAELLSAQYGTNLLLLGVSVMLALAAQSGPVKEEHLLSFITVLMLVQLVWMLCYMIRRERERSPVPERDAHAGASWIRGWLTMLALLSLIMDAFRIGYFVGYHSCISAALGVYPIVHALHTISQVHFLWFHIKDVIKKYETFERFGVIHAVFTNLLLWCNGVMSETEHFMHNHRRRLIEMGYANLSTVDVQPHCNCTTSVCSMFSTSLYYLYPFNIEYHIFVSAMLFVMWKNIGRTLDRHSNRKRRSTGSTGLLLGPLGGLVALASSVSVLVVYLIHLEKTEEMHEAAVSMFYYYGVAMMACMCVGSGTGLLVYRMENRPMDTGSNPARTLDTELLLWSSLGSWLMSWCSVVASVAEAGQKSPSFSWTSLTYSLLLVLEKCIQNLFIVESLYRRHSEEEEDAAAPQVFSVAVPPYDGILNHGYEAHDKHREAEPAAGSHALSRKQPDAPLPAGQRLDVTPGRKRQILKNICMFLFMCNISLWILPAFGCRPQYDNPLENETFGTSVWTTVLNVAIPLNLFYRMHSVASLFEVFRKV
Assay: Whole-cell patch-clamp, inhibition of acid-evoked currents, DrOTOP1 G130W/A388W
Type: cell-based, zebrafish (Danio rerio)
Experimental: Given our limited success in identifying mutations of the central site that disrupt antagonism by C2.2, we tested whether mutations of the central site in a background of G130W (the most impactful outer site mutation) might unmask contributions of this site. Thus, we generated and tested double mutants of G130W with E384A, A274W, and A388W. […] We also measured the dose-dependence of inhibition by C2.2 for both G130W/A388W and G130W/E384A (Fig. 5I, J). […] G130W was tested in parallel to confirm that 100 and 300 μM C2.2 produced dose-dependent inhibition.
HEK-293 cells (CRL-1573, ATCC) were cultured in DMEM (Thermofisher 11995073) containing 10% fetal bovine serum (Life Technology 16000044) and Penicillin-Streptomycin (100 I.U./mL) and (100 µg/mL), respectively. Cells were transfected with WT DrOTOP1 or mutant DrOTOP1 channels in 35 mm petri dishes, with ~ 500 ng DNA and 2 μL TransIT-LT1 transfection reagent (Mirus Bio Corporation, Cat # MIR2300) following the manufacturer’s protocol. All constructs were subcloned into a pcDNA3.1 vector that adds an N-terminal fusion tag consisting of an octahistidine tag followed by eGFP, a Gly-Thr-Gly-Thr linker and a 3C protease cleavage site ([…]) followed by WT DrOTOP1, WT mOTOP1, WT hOTOP1, or mutated DrOTOP1. Point mutations were generated via In-Fusion Cloning (Takara) using single-stranded DNA primers generated through IDT and sequence confirmed by Sanger sequencing (GeneWiz).
Whole-cell patch-clamp recording was performed as previously described[6],[22],[25]. Recordings were made with an Axopatch 200B amplifier, digitized with a Digidata 1322a 16-bit data acquisition system, acquired with pClamp 8.2 and analyzed with Clampfit 10 (Molecular Devices). Recordings were sampled at 5 kHz and filtered at 1 kHz. Patch Pipettes with resistance of […] were fabricated from borosilicate glass, and only recordings with a giga-Ohm seal were used in analysis. Membrane potential was held at −80 mV for the duration of recordings. At the beginning of recordings and between, cells were washed with Tyrode’s solution (see below). Once a giga-Ohm seal was reached, cells were lifted and placed in front of microcapillary tubes controlled by a Fast-Step perfusion system (Warner Instruments) so that extracellular solutions could be rapidly exchanged during each experiment.
Standard Tyrode’s solution consisted of 145 mM NaCl, 5 mM KCl, MgCl2, 2 mM CaCl2, 20 mM D-Glucose, and 10 mM HEPES (for pH 7.4). All other extracellular patch-clamp solutions contained 160 mM NMDG-Cl, 2 mM CaCl2, and the following buffers: 10 mM HEPES (for pH 7.4), 10 mM MES (for pH 6.5-5.5), 10 mM CHES for pH 10, and 10 mM HomoPIPES for (pH 5.0). pH adjusted with HCl. When adding compounds to extracellular solutions, the concentration of DMSO in solution was never higher than 0.3%. The pipette contained intracellular solution made up of 120 mM Cs-aspartate, 15 mM CsCl, 2 mM Mg-ATP, 5 mM EGTA, 2.4 mM CaCl2 (100 nM free Ca^2+), and 10 mM HEPES with a pH of 7.3. All extracellular solution osmolarity was adjusted to 300 mOsm and intracellular osmolarity was adjusted to 290 mOsm.
All data are presented as mean ± SEM unless otherwise noted, and each data point represents an independent replicant. Inhibition of compounds was quantified as ((I2peak-I1)/(I2peak))*100, where I1 is the current immediately before wash-off and I2peak is the maximum recovered current (Supplementary Fig. 2). Hill coefficients were determined by the following equation: Y = Bmax*X^h/(Kd^h + X^h). Absolute IC50 was determined by the following equation: Fifty = (Top + Baseline)/2 Y = Bottom + (Top-Bottom)/(1 + ((Top-Bottom)/(Fifty-Bottom) − 1)*(AbsoluteIC50/X)^HillSlope). pH50 curves (Fig. 6G inset) were determined using the following equation: Y = Bottom + (Top-Bottom)/(1 + (EC/X)^HillSlope) where EC = EC50 control. Graphs with electrophysiological data were made in Graphpad Prism 10 (Graphpad Software Inc). […]

[1] = 100 µM, DrOTOP1 G130W/A388W, single cells

Row | Compound | Inhibition of currents (10 µM, DrOTOP1 G130W/A388W, single cells or mean, mean) [%] | Inhibition of currents (10 µM, DrOTOP1 G130W/A388W, single cells or mean, single cells) | HillSlope (DrOTOP1 G130W/A388W) | Reduction in sensitivity (IC50) compared with single mutant G130W (DrOTOP1 G130W/A388W) | IC50 (DrOTOP1 G130W/A388W, pH 5.5, read-out: IC50) [µM] | HillSlope (G130W/A388W, best-fit value) | LogAbsoluteIC50 (G130W/A388W, best-fit value) | IC50 (G130W/A388W, best-fit value, Top = 100, Bottom = 0, read-out: AbsoluteIC50) [µM] | Inhibition of currents [1] | inhibition at 100 µM [1] [%]
1 | C=C(C)COc1ccccc1NC(=O)c1nc[nH]c1C [C2.2] | 1.543 | 2.216% and 2.459% and 1.638% and 1.737% and 0.722% and 0.4878% | 1.10 | 3 fold and ~ 3 fold | 397 | 1.1 | 2.599 | 397 |  | 
2 | O=C(/C(=N\O)c1ccccc1)c1ccccc1 [C11, benzil monoxime] |  |  |  |  |  |  |  |  | 63.5701% and 65.9051% and 61.9048% and 72.4545% and 68.6192% | 63.1
